# In PMC6370995, “Phase I study of PF‐04895162, a Kv7 channel opener, reveals unexpected hepatotoxicity in healthy subjects, but not rats or monkeys: clinical evidence of disrupted bile acid homeostasis” (Pharmacology Research & Perspectives, 2019):
# Tests used:
# [1] = test system: healthy subjects; assay: Phase 1 clinical study in healthy subjects: safety (adverse events, laboratory tests); assay type: in vivo, human
# Protocol: A randomized, double‐blind, third‐party open (i.e., subject and Investigator blind, and Sponsor open), placebo‐controlled study was conducted in healthy subjects to investigate the safety, tolerability, and pharmacokinetics of single and multiple oral doses of PF‐04895162 and to characterize the effect of food on the pharmacokinetics of a single oral dose of PF‐04895162. The study was conducted in accordance with the International Conference on Harmonization guideline for Good Clinical Practice and the principles of the Declaration of Helsinki and was approved by the local independent ethics committee. All subjects gave written informed consent prior to participation in the study. The study was planned as a parallel group, dose escalation study in four cohorts of 10 subjects each, however, the study was terminated prematurely and only Cohort 1 was conducted. After an initial screening visit to confirm eligibility, subjects in Cohort 1 (Figure 1) received single oral doses of 300 mg PF‐04895162 in Period 1 (under fasting conditions) and Period 2 (under fed conditions), and then 300 mg BID PF‐04895162 or placebo for 14 days (under fasting conditions) in Period 3 (the final dose was administered on the morning of Day 14). In Period 2, subjects were given a high‐fat breakfast 25 minutes prior to dosing which had to be consumed within 20 minutes. In all periods, subjects were fasted for at least 8 hours prior to morning dosing (except for breakfast in Period 2), and received lunch and dinner approximately 4 and 9‐10 hours after the morning dose, respectively. In Period 3, subjects were randomized so that eight subjects received PF‐04895162 and two subjects received placebo. The single doses in Periods 1 and 2, and the first dose in Period 3 were each separated by 3 days. A follow‐up visit was conducted 7‐14 days after the final dose. The ClinicalTrials.gov identifier was NCT01691274.
# Subjects were healthy males and/or females of nonchildbearing potential, aged 18 to 55 years inclusive with body mass index of 17.5 to 30.5 kg/m^2 and total body weight of >50 kg. Healthy was defined as no clinically relevant abnormalities identified by a detailed medical history, full physical examination, including blood pressure and pulse rate measurement, 12 lead electrocardiograms (ECGs) or clinical laboratory tests. Subjects with evidence or history of clinically significant disease (including drug allergies, but excluding untreated, asymptomatic, seasonal allergies at the time of dosing) and pregnant or nursing females were excluded from this study. Subjects with a history of seizures or conditions with a risk of seizures were also excluded. Other exclusion criteria were generally standard for healthy subject studies and included conditions affecting drug absorption, evidence of drug and/or alcohol abuse, and restrictions on the use of prescription, nonprescription, and over‐the‐counter medications and herbal remedies.
# Safety was assessed throughout the study by monitoring adverse events, vital signs (blood pressure, pulse rate, and body temperature), 12‐lead ECGs, and physical examinations. Blood samples for safety laboratory assessments were collected prior to and 24 hours after the first single dose of PF‐04895162 (Day 1 and 2 of Period 1), and in Period 3 on Days 7, 14, and 21 (additional samples were also collected in response to emerging safety data). The Columbia suicide severity rating scale (C‐SSRS) was also conducted at screening or baseline and at the follow‐up visit. Blood samples for pharmacokinetic profiles of PF‐04895162 were collected from predose to 72 hours after each single dose (Periods 1 and 2), and up to 12 and 48 hours after morning dosing on Days 7 and 14, respectively, in Period 3. Additional trough samples were also collected on Days 5, 6, 12, and 13 of Period 3.
# [2] = test system: cynomolgus monkeys; assay: Escalating Dose Range-Finding and Maximum Tolerated Dose Study in Cynomolgus Monkeys; assay type: in vivo, cynomolgus monkey
# [3] = 300 mg single dose, fasted, N = 10
# [4] = 300 mg single dose, fed, N = 10
# [5] = Grade 1, >1.25 - 2.5 × ULN, 300 mg BID
# [6] = Grade 2, >2.5 - 5 × ULN, 300 mg BID
# [7] = Grade 3, >5 - 10 × ULN, 300 mg BID
smiles,measurement,setting,value
"O=C(Cc1ccc(F)cc1)Nn1c(C2CC2)nc2cc(F)ccc2c1=O [PF‐04895162, N‐(2‐cyclopropyl‐7‐fluoro‐4‐oxoquinazolin‐3(4H)‐yl)‐2‐(4‐fluorophenyl)ethanamide]","ALT, Subject 8, Day 7",[1]; 300 mg BID,1.5 x the ULN
same,Height of transaminase elevations,"[1]; 300 mg BID, 14-day multiple dose",≤ 5 x the ULN
same,"ALT elevation, Subject 8","[1]; 300 mg BID, Day 14, Grade 3",5.6 x ULN
same,"AST increase, Subject 8","[1]; 300 mg BID, Grade 2",2.7 x ULN
same,"Number of Subjects discontinued due to AEs, all causalities","[1]; 300 mg BID, N = 8",1 (1)
same,"Number of Subjects discontinued due to AEs, treatment-related","[1]; 300 mg BID, N = 8",1 (1)
same,"Number of Subjects with AEs, all causalities","[1]; 300 mg BID, N = 8",8
same,"Number of Subjects with AEs, treatment-related","[1]; 300 mg BID, N = 8",6
same,"Number of Subjects with Amylase increased, all causalities","[1]; 300 mg BID, N = 8",2 (2)
same,"Number of Subjects with Amylase increased, treatment-related","[1]; 300 mg BID, N = 8",2 (2)
same,"Number of Subjects with Decreased appetite, all causalities","[1]; 300 mg BID, N = 8",2
same,"Number of Subjects with Decreased appetite, treatment-related","[1]; 300 mg BID, N = 8",0
same,"Number of Subjects with Flatulence, all causalities","[1]; 300 mg BID, N = 8",2
same,"Number of Subjects with Flatulence, treatment-related","[1]; 300 mg BID, N = 8",1
same,"Number of Subjects with Transaminases increased, all causalities","[1]; 300 mg BID, N = 8",6 (6)
same,"Number of Subjects with Transaminases increased, treatment-related","[1]; 300 mg BID, N = 8",6 (6)
same,Number of Subjects with serious AEs,"[1]; 300 mg BID, N = 8",0
same,Number of Subjects with severe AEs,"[1]; 300 mg BID, N = 8",0
same,"ALT response, Subject 6","[1]; 300 mg BID, by Day 14",did not demonstrate any ALT elevations
same,"GGT elevation, Subject 8","[1]; 300 mg BID, starting on Day 14",1.4 x ULN
same,Subjects with elevations in ALT on Day 14,"[1]; 300 mg BID, subjects who finished Period 3",six of the remaining seven subjects
same,"Number of Subjects discontinued due to AEs, all causalities",[1]; [3],0
same,"Number of Subjects with AEs, all causalities",[1]; [3],1 (1)
same,"Number of Subjects with AEs, treatment-related",[1]; [3],1 (1)
same,"Number of Subjects with Amylase increased, all causalities",[1]; [3],0
same,"Number of Subjects with Decreased appetite, all causalities",[1]; [3],0
same,"Number of Subjects with Flatulence, all causalities",[1]; [3],0
same,"Number of Subjects with Transaminases increased, all causalities",[1]; [3],0
same,Number of Subjects with serious AEs,[1]; [3],0
same,Number of Subjects with severe AEs,[1]; [3],0
same,"Number of Subjects discontinued due to AEs, all causalities",[1]; [4],0
same,"Number of Subjects with AEs, all causalities",[1]; [4],2
same,"Number of Subjects with AEs, treatment-related",[1]; [4],0
same,"Number of Subjects with Amylase increased, all causalities",[1]; [4],0
same,"Number of Subjects with Decreased appetite, all causalities",[1]; [4],0
same,"Number of Subjects with Flatulence, all causalities",[1]; [4],0
same,"Number of Subjects with Transaminases increased, all causalities",[1]; [4],0
same,Number of Subjects with serious AEs,[1]; [4],0
same,Number of Subjects with severe AEs,[1]; [4],0
same,Subjects with transaminase elevations (≥grade 1),"[1]; 300 mg twice daily for 2 weeks, healthy subjects",six of eight
same,"Lipase, Subject 7","[1]; Day 3 of Period 3, 300 mg BID, ULN = 60 IU/L",434 IU/L
same,"Amylase, Subject 7","[1]; Day 3 of Period 3, 300 mg BID, ULN = 136 IU/L",179 IU/L
same,"TBIL abnormalities, number of subjects, Grade 1","[1]; Grade 1, >1 - 1.5 × ULN, 300 mg BID",2
same,"ALT abnormalities, number of subjects, Grade 1",[1]; [5],3
same,"AST abnormalities, number of subjects, Grade 1",[1]; [5],0
same,"TBIL abnormalities, number of subjects, Grade 2","[1]; Grade 2, >1.5 - 2.5 × ULN, 300 mg BID",0
same,"ALT abnormalities, number of subjects, Grade 2",[1]; [6],2
same,"AST abnormalities, number of subjects, Grade 2",[1]; [6],1
same,"TBIL abnormalities, number of subjects, Grade 3","[1]; Grade 3, >2.5 - 5 × ULN, 300 mg BID",0
same,"ALT abnormalities, number of subjects, Grade 3",[1]; [7],1
same,"AST abnormalities, number of subjects, Grade 3",[1]; [7],0
same,"TBIL abnormalities, number of subjects, Grade 4","[1]; Grade 4, >5 × ULN, 300 mg BID",0
same,"ALT abnormalities, number of subjects, Grade 4","[1]; Grade 4, >10 × ULN, 300 mg BID",0
same,"AST abnormalities, number of subjects, Grade 4","[1]; Grade 4, >10 × ULN, 300 mg BID",0
same,"gross findings at necropsy, organ weights, liver histopathology, Dosing Phase 1","[2]; 25, 50, 100 and 200 mg/kg",no other apparent effects of treatment
same,"clinical signs, Dosing Phase 2","[2]; morning following dosing at 200 mg/kg/day, all 4 treated monkeys","hyperactivity, ataxia, tremors, and dilated pupils"
same,"clinical observation, Dosing Phase 1","[2]; single escalating NG doses, most prevalently at 100 and 200 mg/kg",Post-dosing vomitus
